# Tests used:
# TEX cells = test: ROS generation, DCF-DA and DHE staining; assay type: cell-based, human; conditions: time-points up to 24 hours
# Description: FIG. 4. […] (A) Cells from TEX, OCI-AML2 and two primary AML patients were treated with increasing concentrations (2.5 μM and 5 μM) of tigecycline for 36 and 48 hours of tigecycline. Total proteins were extracted and analyzed by western blotting for Cox-1, Cox-2, Cox-4, grp78, XIAP, actin and tubulin. (B) TEX and AML patient cells were treated with increasing concentrations (2.5 μM and 5 μM) of tigecycline. Cox-1, Cox-2, and Cox-4 mRNA expression relative 18S was determined by quantitative RT-PCR. Data is shown as mean±SD. (C) TEX cells were treated with increasing concentrations of tigecycline and chloramphenicol (CAP) for 72 hours. Complex I, II and IV enzyme activity relative to citrate synthase activity was determined as described in materials and methods. (D) Cells from TEX, primary AML patients, and normal donors were treated with increasing concentrations of tigecycline. Mitochondrial membrane potential (Δψ) was determined by staining cells with JC-1 dye, and flow cytometry analysis (Red/Green ratio). Reactive oxygen species generation (ROS) was determined by staining with h2-DCFDA and Dihydroethidium (DHE).
# A byproduct of the mitochondrial enzyme activities of the electron transport chain is the generation of reactive oxygen species (ROS). […] Therefore, the role of tigecycline on ROS generation in leukemia cells by analyzing hydrogen peroxide ions (H2O2) using a dichlorofluorescein dye (DCF-DA), and superoxide anions using dihydroethidium (DHE) was examined.
# [1] = test system: acute myeloid leukemia (AML); conditions: 13 patients treated; cited from earlier work
molecule,measurement,setting,value
CC[C@H]1/C=C/C=C/C[C@@H](C)[C@H](O)[C@@](C)(O)C(=O)[C@@H](C)[C@H](O)[C@@H](C)C(=O)[C@@H](C)[C@H](O)[C@@H](C)/C=C/C(=O)O[C@@H]2[C@H](C)[C@H](CC1)O[C@]1(CC[C@H](C)[C@H](C[C@@H](C)O)O1)[C@H]2C [oligomycin],ROS generation,TEX cells,rapid increases in ROS levels
NC(=O)c1ncn([C@@H]2O[C@H](CO)[C@@H](O)[C@H]2O)n1 [ribavirin],complete remission (number of patients),[1],1
same,partial remissions (number of patients),[1],2
C=C(C)[C@H]1Cc2c(ccc3c2O[C@@H]2COc4cc(OC)c(OC)cc4[C@@H]2C3=O)O1 [rotenone],ROS generation,TEX cells,rapid increases in ROS levels
antimycin,ROS generation,TEX cells,rapid increases in ROS levels
